Results taken from paper PMC11821258 (Molecules, 2025).

Experiments:
[1] = system: human biphenotypic B myelomonocytic leukemia MV4-11; test: Antiproliferative activity, MTT assay, 72 h; assay type: cell-based; conditions: for IC50: Homo sapiens, MV4-11, 72 h, MTT, read-out: IC50; for SI: IC50 MCF-10A / IC50 MV4-11
Procedure: (§1) The tested compounds were dissolved in DMSO (dimethyl sulfoxide) to a concentration of 10 mg/mL and then were diluted in the culture medium to reach the final concentrations. The cells were plated in 384-well plates at a density of 1 × 10^3 or 2 × 10^3 (MCF-10A) cells per well (Greiner Bio One, Kremsmünster, Austria) and in 96-well plates (MV4-11 cell; Sarstedt, Nümbrecht, Germany) at a density of 5 × 10^3 cells per well. After 24 h of incubation, the tested compounds were added at concentrations in the range of 100–0.03 µg/mL and, after the next 72 h of exposure to tested agents, the cytotoxic effect of all agents was examined using the MTT (MV4-11) or SRB assay, described previously. The values of IC50 (inhibitory concentration 50%) were calculated separately for each experiment (repeated 3–5 times) using the Prolab-3 system which is based on Cheburator 0.4 software. Doxorubicin was applied as a reference drug. The IC50 values in µg/mL were calculated to µM.
This assay was used against MV4-11 leukemia cells and was performed after 72 h of exposure of the tested agents to the cells. For each well, 20 µL of the MTT [3-(4,5-dimethylthiazol-2-yl)-2,5-diphenyl tetrazolium bromide] solution (5 mg/mL, Merck, Darmstadt, Germany) was added. After the incubation time (4 h at 37 °C), 80 µL of the lysing buffer was added to each well (mixture of 225 mL of DMF (dimethylformamide) Avantor, Poland; 67.5 g of SDS, Merck, Darmstadt, Germany; and 275 mL of distilled water). After the next 24 h, the absorbance of the samples was measured at a 570 nm wavelength on a Synergy H4 photometer (BioTek Instruments, Winooski, VT, USA). The absorbance of wells without the cells was the background.

[2] = system: tested cell lines (MV4-11, A549, MCF-7, PC-3, HCT116, MiaPaca-2, Hs294T); test: Antiproliferative activity, range over the tested cell lines; assay type: cell-based; conditions: Homo sapiens; range across cell lines, 72 h
Procedure: as §1, with “The values of IC50 (inhibitory concentration 50%) were calculated separately for each experiment (repeated 3–5 times) using the Prolab-3 system which is based on Cheburator 0.4 software. Doxorubicin was applied as a reference drug.” left out
This assay was used against MV4-11 leukemia cells and was performed after 72 h of exposure of the tested agents to the cells. […] After the next 24 h, the absorbance of the samples was measured at a 570 nm wavelength on a Synergy H4 photometer (BioTek Instruments, Winooski, VT, USA). The absorbance of wells without the cells was the background.
The cytotoxicity assay was performed after the cultured cells were exposed to the tested agents for 72 h using the authomatic Washer dyspenser EL406, BioTek. […] The absorbance (at 540 nm) was measured on a Synergy H4 photometer (BioTek Instruments, Winooski, VT, USA). […]

MV4-11 cells [3] = test: Cell cycle analysis by flow cytometry (propidium iodide); assay type: cell-based, human
Procedure: After incubation, the cells were collected and counted with a hemocytometer, and the 5×10^5 cells were washed twice in cold PBS (phosphate-buffered saline) and fixed for 24 h in 70% ethanol at −20 °C. Then, the cells were washed twice in PBS and incubated with 0.5 mL of RNAse (8 μg/mL, Thermo Fisher, Waltham, MA, USA) at 37 °C for 1 h. The cells were stained for 30 min with propidium iodide (final concentration: 50 μg/mL, Merck, Darmstadt, Germany) at 4 °C and the cellular DNA content was analyzed by conducting flow cytometry using a BD LSRFortessa cytometer (BD Bioscience, San Jose, CA, USA). Compounds at each concentration were tested at least three times independently. The obtained results were analyzed using Flowing software 2.5.1 (Cell Imaging Core, Turku Centre for Biotechnology, University of Turku and Åbo Akademi University, Finland).

[4] = system: human normal epithelial cells from the mammary gland (MCF-10A); test: Cytotoxicity on non-tumorigenic cells, SRB assay, 72 h; assay type: cell-based; conditions: Homo sapiens, MCF-10A normal cells, SRB, read-out: IC50
Procedure: as §1
(§2) The cytotoxicity assay was performed after the cultured cells were exposed to the tested agents for 72 h using the authomatic Washer dyspenser EL406, BioTek. At the first step, the washer dispenser collected 40 µL of cultured medium from each wells, and then the cells were fixed by gently layering 20 µL per well of cold 25% trichloroacetic acid to each well. The incubation time was 40 min and then the plates were washed with tap water. The cells were stained with 20 µL per well of 0.1% sulforhodamine B (SRB, Merck, Darmstadt, Germany) for 30 min. Unbound sulforhodamine B was removed by washing it with 1% acetic acid. The protein-bound dye was extracted in 30 min using 70 µL per well of 10 mM unbuffered Tris base (Merck, Darmstadt, Germany). The absorbance (at 540 nm) was measured on a Synergy H4 photometer (BioTek Instruments, Winooski, VT, USA). The absorbance of the wells without the cells was the background.

[5] = system: human melanoma Hs294T cells; test: Antiproliferative activity, SRB assay, 72 h; assay type: cell-based; conditions: for IC50: Homo sapiens, Hs 294T, Hs249T (so in the source), 72 h, SRB, read-out: IC50; for SI: IC50 MCF-10A / IC50 Hs249T (so in the source)
Procedure: as §1, §2

[6] = system: human pancreas cancer MiaPaca-2 cells; test: Antiproliferative activity, SRB assay, 72 h; assay type: cell-based; conditions: for IC50: Homo sapiens, MIA PaCa-2, MiaPaca-1 (so in the source), 72 h, SRB, read-out: IC50; for SI: IC50 MCF-10A / IC50 MiaPaca-1 (so in the source)
Procedure: as §1, §2

[7] = system: human colon cancer HCT116 cells; test: Antiproliferative activity, SRB assay, 72 h; assay type: cell-based; conditions: for IC50: Homo sapiens, HCT-116, HCT116, 72 h, SRB, read-out: IC50; for SI: IC50 MCF-10A / IC50 HCT116
Procedure: as §1, §2

[8] = system: human breast cancer MCF-7; test: Antiproliferative activity, SRB assay, 72 h; assay type: cell-based; conditions: for IC50: Homo sapiens, MCF7, MCF-7, 72 h, SRB, read-out: IC50; for SI: IC50 MCF-10A / IC50 MCF-7
Procedure: as §1, §2

[9] = system: human prostate adenocarcinoma PC-3; test: Antiproliferative activity, SRB assay, 72 h; assay type: cell-based; conditions: for IC50: Homo sapiens, PC-3, 72 h, SRB, read-out: IC50; for SI: IC50 MCF-10A / IC50 PC-3
Procedure: as §1, §2

[10] = system: human lung carcinoma A549; test: Antiproliferative activity, SRB assay, 72 h; assay type: cell-based; conditions: for IC50: Homo sapiens, A549, 72 h, SRB, read-out: IC50; for SI: IC50 MCF-10A / IC50 A549
Procedure: as §1, §2

MV4-11 cells [11] = test: Apoptosis determination via Annexin V and PI staining; assay type: cell-based, human
Procedure: Camptothecin at a concentration of 0.05 uM was used as a positive control. After incubation, the cells were collected and counted with a hemocytometer, and 1×10^5 cells were washed twice with PBS. APC-Annexin V (Becton Dickinson, Pharmingen, Franklin Lakes, NJ, USA) was dissolved to the concentration of […] in a binding buffer (10 mM HEPES/NaOH, pH 7.4; 150 mM NaCl; 5 mM KCl; 1 mM MgCl2; and 1.8 mM CaCl2) (HIIET, Wrocław, Poland), and the cells were suspended in 200 µL of this solution. After 15 min of the incubation in the dark at room temperature, 20 µL of propidium iodide (PI) solution (0.02 mg/mL) was added. Data acquisition was performed by conducting flow cytometry using a BD LSRFortessa cytometer (BD Bioscience, San Jose, CA, USA). The compounds were tested at least three times independently. Results were analyzed using Flowing software 2.5.1 (Turku, Finland). […] Double-negative cells were live cells, PI+/Annexin V+ were late apoptotic cells, PI-/Annexin V+ were early apoptotic cells, and PI+/Annexin V- were necrotic cells.

[12] = MV4-11, 72 h, higher concentrations

| Structure (SMILES) | IC50 [1] [µM] | IC50 [2] [µM] | IC50 [4] [µM] | IC50 [5] [µM] | SI [5] | IC50 [6] [µM] | SI [6] | IC50 [7] [µM] | IC50 [8] [µM] | IC50 [9] [µM] | IC50 [10] [µM] | SI [10] | SI [1] | SI [7] | SI [8] | SI [9] | induction of apoptosis (MV4-11 cells [11]; [12]) | other results |
| --- | --- | --- | --- | --- | --- | --- | --- | --- | --- | --- | --- | --- | --- | --- | --- | --- | --- | --- |
| C=C(C)[C@@H]1CC[C@]2(CO)CC[C@]3(C)[C@H](CC[C@@H]4[C@@]5(C)CC[C@H](O)C(C)(C)[C@@H]5CC[C@]43C)[C@@H]12 [B, betulin, reference compound] | 32.8 ± 12.9 | 14 to 144 | 98.48 ± 0.9 | 58.5 ± 15.6 | 1.68 | 144 ± 22.1 | 0.68 | 37.7 ± 7.45 | 43.6 ± 15.8 | 51.5 ± 9.94 | 14 ± 1.13 | 7.03 |  |  |  |  |  | number of cells in the S and G0/G1 phases (MV4-11 cells [3]; MV4-11, 24 h, about 1.5 × IC50): lowered; number of cells in the G2/M phase (MV4-11 cells [3]; MV4-11, 24 h, about 1.5 × IC50, statistically significant): lowered |
| C=C(C)[C@@H]1CC[C@]2(CO)CC[C@]3(C)C(CCC4[C@@]5(C)CC[C@H](OC(=O)CC(C)(C)CC(=O)O)C(C)(C)C5CC[C@]43C)C12 (stereo partly shown) [Compound 4] | 4.77 ± 0.44 | 3.76 to 24.4 | 31.5 ± 1.71 | 24.4 ± 8.89 | 1.29 | 22.6 ± 6.5 | 1.39 | 11.1 ± 2.56 | 12.1 ± 3.08 | 19.2 ± 3.76 | 3.76 ± 2.05 | 8.36 | 6.60 | 2.83 | 2.60 | 1.64 | induction of apoptosis was observed |  |
| C#CC(=O)OC[C@]12CC[C@@H](C(=C)C)C1C1CCC3[C@@]4(C)CC[C@H](OC(=O)CC(C)(C)CC(=O)O)C(C)(C)C4CC[C@@]3(C)[C@]1(C)CC2 (stereo partly shown) [Compound 4a] | 0.38 ± 0.14 |  | 33.1 ± 5.18 | 0.49 ± 0.23 | 67 | 7.54 ± 0.47 | 4.40 | 7.85 ± 2.35 | 16.5 ± 1.88 | 0.86 ± 0.25 | 7.54 ± 1.25 | 4.40 |  | 4.22 | 2.01 |  | induction of apoptosis was observed | induction of apoptosis (MV4-11 cells [11]; MV4-11, 24 h): induced apoptosis |
| C#CCCC(=O)OC[C@]12CC[C@@H](C(=C)C)C1C1CCC3[C@@]4(C)CC[C@H](OC(=O)CC(C)(C)CC(=O)O)C(C)(C)C4CC[C@@]3(C)[C@]1(C)CC2 (stereo partly shown) [Compound 4b] | 3.19 ± 1.29 |  | 32.6 ± 2.41 | 10.7 ± 1.5 | 3.06 | 24.5 ± 2.56 | 1.33 | 7.82 ± 2.86 | 11.7 ± 2.41 | 11.6 ± 4.51 | 4.06 ± 1.05 | 8.04 | 10.20 | 4.17 | 2.78 | 2.82 | induction of apoptosis was observed | number of death cells (MV4-11 cells [3]; MV4-11, 72 h, about 1.5 × IC50): increased; number of cells in the G2/M and S phases (MV4-11 cells [3]; MV4-11, 72 h, about 1.5 × IC50, statistically significant): decreased |
